The test addresses T1, human EP4 receptor (Homo sapiens, UniProt P35408).
T1 construct: expressed in transfected cells; host or cells: Chinese Hamster Ovary (CHO) cells infected with recombinant Semliki Forest Virus (SFV-1) particles; membranes prepared from these cells
Kind of test: Human EP4 Scintillation Proximity Assay (radioligand binding). The note with it: membranes of CHO cells expressing human EP4 receptor; [3H]-prostaglandin E2 radioligand; pKi from IC50 by Cheng-Prusoff; read-out: pKI at EP4 receptors (converted). Here is the method: Quantification of radioligand binding by scintillation proximity assay (SPA) is a long-established principle. Briefly, the affinity of compounds for a receptor is assessed by the specific competition between known quantities of radiolabelled ligand and compound for that receptor. Increasing concentrations of compound reduce the amount of radiolabel that binds to the receptor. This gives rise to a diminishing scintillation signal from SPA beads coated with membranes that bear the receptor. The signal may be detected with a suitable scintillation counter and the data generated may be analysed with suitable curve-fitting software.
The human EP4 SPA assay (hereafter referred to as ‘the assay’) utilises membranes prepared from Chinese Hamster Ovary (CHO cells) infected with Semliki Forest Virus (SFV). Genetically engineered SFV-1 viral particles containing the genetic sequence of the human EP4 receptor were used to infect CHO cells resulting in expression of the receptor protein in cellular membranes. Cells washed free of media are homogenised in a pH-buffered medium containing peptidase inhibitors. A suitable buffer is of the following composition: 50 mM HEPES, 1 mM EDTA, 25 μg/ml bacitracin, 100 μM leupeptin, 1 mM PMSF, 2 μM Pepstatin A, pH adjusted to 7.4 with KOH. Following removal of cell debris by a low-speed centrifugation, a pellet of membranes is prepared by a high-speed (48000 g) centrifugation of the resulting supernatant. Membrane suspensions such as that described may be stored at −80° C. until used.
For assay, membranes expressing human EP4 receptors are diluted in a pH-buffered medium and mixed with SPA beads coated with a suitable substance to facilitate the adhesion of membranes to the beads. The concentrations of membrane protein and SPA beads chosen should result in SPA binding signal of at least 300 corrected counts per minute (CCPM) when tritiated radioligand at a concentration close to its Kd (affinity value) is combined with the mixture. Non-specific binding (nsb) may be determined by competition between the radiolabelled ligand and a saturating concentration of unlabelled ligand. In order to quantify the affinity of EP4 receptor ligands, compounds are diluted in a stepwise manner across the wells of a 96-well plate. Radioligand, compound, and unlabelled ligand are then added to a 96-well plate suitable for the measurement of SPA binding signals prior to the addition of bead/membrane mixture to initiate the binding reaction. Equilibrium may be achieved by incubation at room temperature for 120 minutes prior to scintillation counting. The data so generated may be analysed by means of a computerised curve-fitting routine in order to quantify the concentration of compound that displaces 50% of the specific radioligand binding (IC50). The affinity (pKi) of the compound may be calculated from the IC50 by application of the Cheng-Prusoff correction. Suitable reagents and protocols are: reaction buffer containing 50 mM HEPES, 10 mM MgCl2, pH adjusted to 7.4 with KOH; SPA beads coated with wheatgerm agglutinin; 1.25 nM [^3H]-prostaglandin E2 as radioligand; 10 μM prostaglandin E2 as unlabelled ligand; a three-fold dilution series of compound starting at 10 μM and ending at 0.3 nM is adequate.

The source of these data is patent publication US6924297B2, “Naphathalene derivatives which bind to the EP4 receptor” (SmithKline Beecham Corporation, priority 2000, dated 2005).

T1 sequence (P35408 whole entry): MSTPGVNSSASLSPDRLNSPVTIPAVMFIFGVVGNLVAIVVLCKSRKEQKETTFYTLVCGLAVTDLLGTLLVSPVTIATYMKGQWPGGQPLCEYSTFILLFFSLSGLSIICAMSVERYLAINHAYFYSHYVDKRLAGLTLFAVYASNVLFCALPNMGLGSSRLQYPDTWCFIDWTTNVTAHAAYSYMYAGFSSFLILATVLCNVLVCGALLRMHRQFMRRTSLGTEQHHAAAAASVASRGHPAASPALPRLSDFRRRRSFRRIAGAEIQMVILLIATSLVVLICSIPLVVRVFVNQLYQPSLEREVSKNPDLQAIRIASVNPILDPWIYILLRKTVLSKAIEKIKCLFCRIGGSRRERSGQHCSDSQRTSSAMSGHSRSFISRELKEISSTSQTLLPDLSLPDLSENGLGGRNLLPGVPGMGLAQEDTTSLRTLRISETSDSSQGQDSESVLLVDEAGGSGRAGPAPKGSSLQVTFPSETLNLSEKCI

As for `CCOc1c2c(c(OCC)c3ccccc13)C(=O)N(c1ccc(CS(=O)(=O)NC(=O)Cc3ccc(Cl)cc3)cc1)C2=O` [Example 70], the Ki was no more than 100 nM. Next, `CCOc1c2c(c(OCC)c3ccccc13)C(=O)N(c1ccc(CS(=O)(=O)NC(=O)Cc3c(C)cccc3C)cc1)C2=O` [Example 72]: no more than 100 nM. Next, `CCOc1c2c(c(OCC)c3ccccc13)C(=O)N(c1ccc(CS(=O)(=O)NC(=O)Cc3ccsc3)cc1)C2` [Example 51]: no more than 100 nM; `CCOc1c2c(c(OCC)c3ccccc13)C(=O)N(c1ccc(CS(=O)(=O)NC(=O)Cc3cccc(OCc4ccccc4)c3)cc1)C2` [Example 42]: no more than 100 nM. For `CCOc1c2c(c(OCC)c3ccccc13)C(=O)N(c1ccc(CS(=O)(=O)NC(=O)Cc3ccc(C)cc3)cc1)C2=O` [Example 67, 1-[4-(4,9-diethoxy-1,3-dioxo-1,3-dihydro-2H-benzo[f]isoindol-2-yl)phenyl]-N-[(4-methylphenyl)acetyl]methanesulfonamide] the value was no more than 100 nM. On to `CCOc1c2c(c(OCC)c3ccccc13)C(=O)N(c1ccc(CS(=O)(=O)NC(=O)Cc3ccc(C)c(F)c3)cc1)C2=O` [Example 74], for which the Ki was no more than 100 nM. For `CCOc1c2c(c(OCC)c3ccccc13)C(=O)N(c1ccc(CS(=O)(=O)NC(=O)Cc3ccccc3)cc1)C2` [Example 18, 1-[4-(4,9-diethoxy-1-oxo-1,3-dihydro-2H-benzo[f]isoindol-2-yl)phenyl]-N-(phenylacetyl)methanesulfonamide] the value was no more than 100 nM; for `CCOc1c2c(c(OCC)c3ccccc13)C(=O)N(c1ccc(CS(=O)(=O)NC(=O)Cc3ccccc3)cc1)C2=O` [Example 1, 1-[4-(4,9-diethoxy-1,3-dioxo-1,3-dihydro-2H-benzo[f]isoindol-2-yl)phenyl]-N-(phenylacetyl)methanesulfonamide], no more than 100 nM.

Regarding `CCOc1c2c(c(OCC)c3ccccc13)C(=O)N(c1ccc(CS(=O)(=O)NC(=O)Cc3cccc(OC)c3)cc1)C2` [Example 43, 1-[4-(4,9-diethoxy-1-oxo-1,3-dihydro-2H-benzo[f]isoindol-2-yl)phenyl]-N-[(3-methoxyphenyl)acetyl]methanesulfonamide], the Ki is no more than 100 nM. In the case of `CCOc1c2c(c(OCC)c3ccccc13)C(=O)N(c1ccc(CS(=O)(=O)NC(=O)Cc3ccc(CC(C)C)cc3)cc1)C2` [Example 23], the Ki was no more than 100 nM.

Consider `CCOc1c2c(c(OCC)c3ccccc13)C(=O)N(c1ccc(CS(=O)(=O)NC(=O)Cc3ccccc3OC)cc1)C2=O` [Example 71, 1-[4-(4,9-diethoxy-1,3-dioxo-1,3-dihydro-2H-benzo[f]isoindol-2-yl)phenyl]-N-[(2-methoxyphenyl)acetyl]methanesulfonamide], for which the Ki was no more than 100 nM.

Regarding `CCOc1c2c(c(OCC)c3ccccc13)C(=O)N(c1ccc(CS(=O)(=O)NC(=O)Cc3ccc(OC)cc3)cc1)C2=O` [Example 2], the Ki is no more than 100 nM.

As for `CCOc1c2c(c(OCC)c3ccccc13)C(=O)N(c1ccc(CS(=O)(=O)NC(=O)Cc3ccc(F)cc3)cc1)C2=O` [Example 62], the Ki was no more than 100 nM. With `CCOc1c2c(c(OCC)c3ccccc13)C(=O)N(c1ccc(CS(=O)(=O)NC(=O)Cc3cccc(C)c3)cc1)C2` [Example 26], the Ki was no more than 100 nM. With `CCOc1c2c(c(OCC)c3ccccc13)C(=O)N(c1ccc(CS(=O)(=O)NC(=O)C(C)c3ccc(CC(C)C)cc3)cc1)C2` (stereo not drawn) [Example 40], the Ki is no more than 100 nM.

As for `CCOc1c2c(c(OCC)c3ccccc13)C(=O)N(c1ccc(CS(=O)(=O)NC(=O)Cc3cc(F)ccc3F)cc1)C2=O` [Example 69], the Ki was no more than 100 nM. Next, `CCOc1c2c(c(OCC)c3ccccc13)C(=O)N(c1ccc(CS(=O)(=O)NC(=O)Cc3ccc(OC)c(OC)c3)cc1)C2=O` [Example 66, 1-[4-(4,9-diethoxy-1,3-dioxo-1,3-dihydro-2H-benzo[f]isoindol-2-yl)phenyl]-N-[(3,4-dimethoxyphenyl)acetyl]methanesulfonamide]: no more than 100 nM; `CCOc1c2c(c(OCC)c3ccccc13)C(=O)N(c1ccc(CS(=O)(=O)NC(=O)Cc3ccccc3Cl)cc1)C2` [Example 29]: no more than 100 nM; `CCOc1c2c(c(OCC)c3ccccc13)C(=O)N(c1ccc(CS(=O)(=O)NC(=O)Cc3ccc(C)cc3)cc1)C2` [Example 20]: no more than 100 nM. For `CCOc1c2c(c(OCC)c3ccccc13)C(=O)N(c1ccc(CS(=O)(=O)NC(=O)C(C)(C)c3ccccc3)cc1)C2` [Example 22] the value was no more than 100 nM. Turning to `CCOc1c2c(c(OCC)c3ccccc13)C(=O)N(c1ccc(CS(=O)(=O)NC(=O)Cc3cccc4occc34)cc1)C2` [Example 88], the Ki was no more than 100 nM.

On to `CCOc1c2c(c(OCC)c3ccccc13)C(=O)N(c1ccc(CS(=O)(=O)NC(=O)C3(c4ccccc4)CC3)cc1)C2` [Example 50], for which the Ki is no more than 100 nM.

For `CCOc1c2c(c(OCC)c3ccccc13)C(=O)N(c1ccc(CS(=O)(=O)NC(=O)Cc3ccc(-c4ccccc4)cc3)cc1)C2` [Example 30], the Ki was no more than 100 nM. Next, `CCOc1c2c(c(OCC)c3ccccc13)C(=O)N(c1ccc(CS(=O)(=O)NC(=O)Cc3ccccc3C)cc1)C2=O` [Example 61]: no more than 100 nM. For `CCOc1c2c(c(OCC)c3ccccc13)C(=O)N(c1ccc(CS(=O)(=O)NC(=O)C(C)c3ccccc3)cc1)C2=O` (stereo not drawn) [Example 68] the value was no more than 100 nM; for `CCOc1c2c(c(OCC)c3ccccc13)C(=O)N(c1ccc(CS(=O)(=O)NC(=O)Cc3cccc(OC)c3OC)cc1)C2` [Example 34, 1-[4-(4,9-diethoxy-1-oxo-1,3-dihydro-2H-benzo[f]isoindol-2-yl)phenyl]-N-[(2,3-dimethoxyphenyl)acetyl]methanesulfonamide], no more than 100 nM. For `CCOc1c2c(c(OCC)c3ccccc13)C(=O)N(c1ccc(CS(=O)(=O)NC(=O)Cc3cc(C)ccc3C)cc1)C2` [Example 39] the value was no more than 100 nM. For `CCOc1c2c(c(OCC)c3ccccc13)C(=O)N(c1ccc(CS(=O)(=O)NC(=O)Cc3cc(OC)ccc3OC)cc1)C2` [Example 36], the Ki was no more than 100 nM. For the compound `CCOc1c2c(c(OCC)c3ccccc13)C(=O)N(c1ccc(CS(=O)(=O)NC(=O)C(C)(C)c3cccc(C)c3)cc1)C2=O` [Example 73], the Ki is no more than 100 nM. Take `CCOc1c2c(c(OCC)c3ccccc13)C(=O)N(c1ccc(CS(=O)(=O)NC(=O)Cc3scnc3C)cc1)C2` [Example 60]: the Ki was no more than 100 nM. Next, `CCOc1c2c(c(OCC)c3ccccc13)C(=O)N(c1ccc(CS(=O)(=O)NC(=O)Cc3ccc(OC)c(OC)c3)cc1)C2` [Example 38, 1-[4-(4,9-diethoxy-1-oxo-1,3-dihydro-2H-benzo[f]isoindol-2-yl)phenyl]-N-[(3,4-dimethoxyphenyl)acetyl]methanesulfonamide]: no more than 100 nM; `CCOc1c2c(c(OCC)c3ccccc13)C(=O)N(c1ccc(CS(=O)(=O)NC(=O)Cc3cccc(OC(F)(F)F)c3)cc1)C2` [Example 81]: no more than 100 nM; `CCOc1c2c(c(OCC)c3ccccc13)C(=O)N(c1ccc(CS(=O)(=O)NC(=O)Cc3ccc(C(C)C)cc3)cc1)C2` [Example 27]: no more than 100 nM. As to `CCOc1c2c(c(OCC)c3ccccc13)C(=O)N(c1ccc(CS(=O)(=O)NC(=O)Cc3cccc(F)c3)cc1)C2` [Example 25], the Ki is no more than 100 nM.

As for `CCOc1c2c(c(OCC)c3ccccc13)C(=O)N(c1ccc(CS(=O)(=O)NC(=O)Cc3ccc4ccccc4c3)cc1)C2=O` [Example 77], the Ki is no more than 100 nM. Take `CCOc1c2c(c(OCC)c3ccccc13)C(=O)N(c1ccc(CS(=O)(=O)NC(=O)Cc3ccc4c(c3)OCO4)cc1)C2=O` [Example 93]: the Ki was no more than 100 nM. For `CCOc1c2c(c(OCC)c3ccccc13)C(=O)N(c1ccc(CS(=O)(=O)NC(=O)Cc3ccc4c(c3)OC(C)(C)O4)cc1)C2` [Example 85] the value was no more than 100 nM; for `CCOc1c2c(c(OCC)c3ccccc13)C(=O)N(c1ccc(CS(=O)(=O)NC(=O)Cc3ccc(CC)cc3)cc1)C2` [Example 28], no more than 100 nM; for `CCOc1ccc(CC(=O)NS(=O)(=O)Cc2ccc(N3Cc4c(c(OCC)c5ccccc5c4OCC)C3=O)cc2)cc1OCC` [Example 82], no more than 100 nM.
